Reference: ChEMBL document CHEMBL4376820, “Homodimeric Tobramycin Adjuvant Repurposes Novobiocin as an Effective Antibacterial Agent against Gram-Negative Bacteria” (J Med Chem, 2019)
Activity calls are given as the source filed them. The calls are words filed in the database; no cut-off is given here.

How the values were obtained:
[1] = system: Acinetobacter baumannii; test: Antibacterial activity against colistin-resistant Acinetobacter baumannii ATCC 17978 mutant generated from seven serial passages by checkerboard assay; type: functional
[2] = system: Acinetobacter baumannii; test: Antibacterial activity against wild type Acinetobacter baumannii ATCC 17978 assessed as resistant development at sub-MIC measured after 7 days of passaging by microbroth dilution method relative to control; type: functional
[3] = system: Acinetobacter baumannii; test: Antibacterial activity against novobiocin-resistant Acinetobacter baumannii ATCC 17978 mutant generated from seven serial passages by checkerboard assay; type: functional
[4] = system: Acinetobacter baumannii; test: Antibacterial activity against wild type Acinetobacter baumannii ATCC 17978 by checkerboard assay; type: functional
[5] = system: Acinetobacter baumannii; test: Antibacterial activity against novobiocin and test compound-resistant Acinetobacter baumannii ATCC 17978 mutant generated from seven serial passages in presence of novobiocin by checkerboard assay; type: functional
[6] = system: Pseudomonas aeruginosa; test: Synergistic antibacterial activity against wild type Pseudomonas aeruginosa PAO1 assessed as potentiation of levofloxacin-induced antibacterial effect incubated for 18 hrs by checkerboard assay; type: functional, organism-based
[7] = system: Pseudomonas aeruginosa; test: Synergistic antibacterial activity against wild type Pseudomonas aeruginosa PAO1 assessed as potentiation of minocycline-induced antibacterial effect incubated for 18 hrs by checkerboard assay relative to minocycline alone; type: functional
[8] = system: Pseudomonas aeruginosa; test: Synergistic antibacterial activity against wild type Pseudomonas aeruginosa PAO1 assessed as potentiation of vancomycin-induced antibacterial effect at <=7.1 uM incubated for 18 hrs by checkerboard assay; type: functional, organism-based
[9] = system: Pseudomonas aeruginosa; test: Synergistic antibacterial activity against wild type Pseudomonas aeruginosa PAO1 assessed as potentiation of meropenem-induced antibacterial effect incubated for 18 hrs by checkerboard assay relative to meropenem alone; type: functional
[10] = system: HepG2; test: Cytotoxicity against human HepG2 cells at 50 uM incubated for 48 hrs by PrestoBlue dye based fluorescence assay; type: cell-based; settings: hepg2, 48 h
[11] = system: Pseudomonas aeruginosa; test: Antibacterial activity against wild type Pseudomonas aeruginosa PAO1 assessed as fractional inhibitory concentration index incubated for 18 hrs in presence of tobramycin by checkerboard assay; type: functional
[12] = system: Pseudomonas aeruginosa; test: Synergistic antibacterial activity against wild type Pseudomonas aeruginosa PAO1 assessed as potentiation of doxycycline-induced antibacterial effect incubated for 18 hrs by checkerboard assay; type: functional, organism-based
[13] = system: Pseudomonas aeruginosa; test: Synergistic antibacterial activity against wild type Pseudomonas aeruginosa PAO1 assessed as potentiation of doxycycline-induced antibacterial effect incubated for 18 hrs by checkerboard assay relative to doxycycline alone; type: functional
[14] = system: Pseudomonas aeruginosa; test: Synergistic antibacterial activity against wild type Pseudomonas aeruginosa PAO1 assessed as potentiation of fosfomycin-induced antibacterial effect incubated for 18 hrs by checkerboard assay; type: functional, organism-based
[15] = system: Pseudomonas aeruginosa; test: Synergistic antibacterial activity against wild type Pseudomonas aeruginosa PAO1 assessed as potentiation of novobiocin-induced antibacterial effect incubated for 18 hrs by checkerboard assay relative to novobiocin alone; type: functional
[16] = system: Pseudomonas aeruginosa; test: Antibacterial activity against wild type Pseudomonas aeruginosa PAO1 assessed as fractional inhibitory concentration index incubated for 18 hrs in presence of colistin by checkerboard assay; type: functional
[17] = system: Pseudomonas aeruginosa; test: Synergistic antibacterial activity against wild type Pseudomonas aeruginosa PAO1 assessed as potentiation of piperacillin-induced antibacterial effect incubated for 18 hrs by checkerboard assay relative to piperacillin alone; type: functional
[18] = system: Pseudomonas aeruginosa; test: Synergistic antibacterial activity against wild type Pseudomonas aeruginosa PAO1 assessed as potentiation of fosfomycin-induced antibacterial effect incubated for 18 hrs by checkerboard assay relative to fosfomycin alone; type: functional
[19] = system: Pseudomonas aeruginosa; test: Synergistic antibacterial activity against wild type Pseudomonas aeruginosa PAO1 assessed as potentiation of chloramphenicol-induced antibacterial effect incubated for 18 hrs by checkerboard assay; type: functional, organism-based
[20] = system: Erythrocyte; test: Hemolytic activity against porcine erythrocytes assessed as hemoglobin release at 1024 ug/ml incubated for 1 hr by microplate reader analysis; type: ADME, cell-based, Sus scrofa; settings: pig
[21] = system: Pseudomonas aeruginosa; test: Synergistic antibacterial activity against wild type Pseudomonas aeruginosa PAO1 assessed as potentiation of linezolid-induced antibacterial effect incubated for 18 hrs by checkerboard assay relative to linezolid alone; type: functional
[22] = system: Pseudomonas aeruginosa; test: Synergistic antibacterial activity against wild type Pseudomonas aeruginosa PAO1 assessed as potentiation of ceftazidime-induced antibacterial effect incubated for 18 hrs by checkerboard assay relative to ceftazidime alone; type: functional
[23] = system: Pseudomonas aeruginosa; test: Synergistic antibacterial activity against wild type Pseudomonas aeruginosa PAO1 assessed as potentiation of cefotaxime-induced antibacterial effect incubated for 18 hrs by checkerboard assay relative to cefotaxime alone; type: functional
[24] = system: Pseudomonas aeruginosa; test: Synergistic antibacterial activity against wild type Pseudomonas aeruginosa PAO1 assessed as potentiation of ciprofloxacin-induced antibacterial effect incubated for 18 hrs by checkerboard assay; type: functional, organism-based
[25] = system: Pseudomonas aeruginosa; test: Synergistic antibacterial activity against wild type Pseudomonas aeruginosa PAO1 assessed as potentiation of novobiocin-induced antibacterial effect incubated for 18 hrs by checkerboard assay; type: functional, organism-based
[26] = system: Pseudomonas aeruginosa; test: Synergistic antibacterial activity against wild type Pseudomonas aeruginosa PAO1 assessed as potentiation of tobramycin-induced antibacterial effect at <= 7.1 uM incubated for 18 hrs by checkerboard assay; type: functional, organism-based
[27] = Toxicity in Galleria mellonella larvae assessed as survivability at 200 mg/kg measured every 6 hrs for 72 hrs; type: organism-based; settings: in vivo
[28] = system: Pseudomonas aeruginosa; test: Synergistic antibacterial activity against wild type Pseudomonas aeruginosa PAO1 assessed as potentiation of moxifloxacin-induced antibacterial effect incubated for 18 hrs by checkerboard assay relative to moxifloxacin alone; type: functional
[29] = system: Pseudomonas aeruginosa; test: Synergistic antibacterial activity against wild type Pseudomonas aeruginosa PAO1 assessed as potentiation of minocycline-induced antibacterial effect incubated for 18 hrs by checkerboard assay; type: functional, organism-based
[30] = system: Pseudomonas aeruginosa; test: Synergistic antibacterial activity against wild type Pseudomonas aeruginosa PAO1 assessed as potentiation of meropenem-induced antibacterial effect incubated for 18 hrs by checkerboard assay; type: functional, organism-based
[31] = system: Pseudomonas aeruginosa; test: Synergistic antibacterial activity against wild type Pseudomonas aeruginosa PAO1 assessed as potentiation of cefotaxime-induced antibacterial effect incubated for 18 hrs by checkerboard assay; type: functional, organism-based
[32] = system: Pseudomonas aeruginosa; test: Synergistic antibacterial activity against wild type Pseudomonas aeruginosa PAO1 assessed as potentiation of ceftazidime-induced antibacterial effect incubated for 18 hrs by checkerboard assay; type: functional, organism-based
[33] = system: Pseudomonas aeruginosa; test: Synergistic antibacterial activity against wild type Pseudomonas aeruginosa PAO1 assessed as potentiation of aztreonam-induced antibacterial effect incubated for 18 hrs by checkerboard assay relative to aztreonam alone; type: functional
[34] = system: Pseudomonas aeruginosa; test: Synergistic antibacterial activity against wild type Pseudomonas aeruginosa PAO1 assessed as potentiation of ciprofloxacin-induced antibacterial effect incubated for 18 hrs by checkerboard assay relative to ciprofloxacin alone; type: functional
[35] = system: Pseudomonas aeruginosa; test: Synergistic antibacterial activity against wild type Pseudomonas aeruginosa PAO1 assessed as potentiation of rifampicin-induced antibacterial effect incubated for 18 hrs by checkerboard assay; type: functional, organism-based
[36] = system: Pseudomonas aeruginosa; test: Synergistic antibacterial activity against wild type Pseudomonas aeruginosa PAO1 assessed as potentiation of clindamycin-induced antibacterial effect incubated for 18 hrs by checkerboard assay relative to clindamycin alone; type: functional
[37] = system: Pseudomonas aeruginosa; test: Synergistic antibacterial activity against wild type Pseudomonas aeruginosa PAO1 assessed as potentiation of colistin-induced antibacterial effect at <=7.1 uM incubated for 18 hrs by checkerboard assay; type: functional, organism-based
[38] = system: HEK293; test: Cytotoxicity against human HEK293 cells at 50 uM incubated for 48 hrs by PrestoBlue dye based fluorescence assay; type: cell-based; settings: hek293, 48 h
[39] = system: Pseudomonas aeruginosa; test: Synergistic antibacterial activity against wild type Pseudomonas aeruginosa PAO1 assessed as potentiation of linezolid-induced antibacterial effect incubated for 18 hrs by checkerboard assay; type: functional, organism-based
[40] = system: Pseudomonas aeruginosa; test: Synergistic antibacterial activity against wild type Pseudomonas aeruginosa PAO1 assessed as potentiation of rifampicin-induced antibacterial effect incubated for 18 hrs by checkerboard assay relative to rifampicin alone; type: functional
[41] = system: Pseudomonas aeruginosa; test: Synergistic antibacterial activity against wild type Pseudomonas aeruginosa PAO1 assessed as potentiation of chloramphenicol-induced antibacterial effect incubated for 18 hrs by checkerboard assay relative to chloramphenicol alone; type: functional
[42] = system: Pseudomonas aeruginosa; test: Synergistic antibacterial activity against wild type Pseudomonas aeruginosa PAO1 assessed as potentiation of moxifloxacin-induced antibacterial effect incubated for 18 hrs by checkerboard assay; type: functional, organism-based
[43] = system: Pseudomonas aeruginosa; test: Synergistic antibacterial activity against wild type Pseudomonas aeruginosa PAO1 assessed as potentiation of clindamycin-induced antibacterial effect incubated for 18 hrs by checkerboard assay; type: functional, organism-based
[44] = system: Pseudomonas aeruginosa; test: Synergistic antibacterial activity against wild type Pseudomonas aeruginosa PAO1 assessed as potentiation of piperacillin-induced antibacterial effect incubated for 18 hrs by checkerboard assay; type: functional, organism-based
[45] = system: Pseudomonas aeruginosa; test: Synergistic antibacterial activity against wild type Pseudomonas aeruginosa PAO1 assessed as potentiation of levofloxacin-induced antibacterial effect incubated for 18 hrs by checkerboard assay relative to levofloxacin alone; type: functional
[46] = system: Pseudomonas aeruginosa; test: Synergistic antibacterial activity against wild type Pseudomonas aeruginosa PAO1 assessed as potentiation of aztreonam-induced antibacterial effect incubated for 18 hrs by checkerboard assay; type: functional, organism-based

## COLISTIN
[1]
  MIC: 1020 µg/mL
[2]
  fold change (FC): 1024
[3]
  MIC: 8 µg/mL
[4]
  MIC: 0.063 µg/mL
[5]
  MIC: 0.031 µg/mL

## NC[C@H]1O[C@H](O[C@H]2[C@H](OCCCCCCCCn3cc(CCCCO[C@@H]4[C@@H](O[C@H]5O[C@H](CO)[C@@H](O)[C@H](N)[C@H]5O)[C@H](N)C[C@H](N)[C@H]4O[C@H]4O[C@H](CN)[C@@H](O)C[C@H]4N)nn3)[C@@H](O[C@H]3O[C@H](CO)[C@@H](O)[C@H](N)[C@H]3O)[C@H](N)C[C@@H]2N)[C@H](N)C[C@@H]1O.O=C(O)C(F)(F)F.O=C(O)C(F)(F)F.O=C(O)C(F)(F)F.O=C(O)C(F)(F)F.O=C(O)C(F)(F)F.O=C(O)C(F)(F)F.O=C(O)C(F)(F)F.O=C(O)C(F)(F)F.O=C(O)C(F)(F)F.O=C(O)C(F)(F)F
[6]
  Activity: Dose-dependent effect
[7]
  fold change (FC): 4 - 128
[8]
  Activity: inactive
[9]
  fold change (FC): 4 - 128
[10]
  Activity: Non-Toxic
[11]
  fractional inhibitory concentration index (FICI): >4
[12]
  Activity: Dose-dependent effect
[13]
  fold change (FC): 4 - 128
[14]
  Activity: Dose-dependent effect
[15]
  fold change (FC): 4 - 128
[16]
  fractional inhibitory concentration index (FICI): >4
[17]
  fold change (FC): 4 - 128
[18]
  fold change (FC): 4 - 128
[19]
  Activity: Dose-dependent effect
[20]
  Activity: Non-Toxic
[21]
  fold change (FC): 4 - 128
[22]
  fold change (FC): 4 - 128
[23]
  fold change (FC): 4 - 128
[24]
  Activity: Dose-dependent effect
[25]
  Activity: Dose-dependent effect
[26]
  Activity: inactive
[27]
  Activity: Non-Toxic
[28]
  fold change (FC): 4 - 128
[29]
  Activity: Dose-dependent effect
[30]
  Activity: Dose-dependent effect
[31]
  Activity: Dose-dependent effect
[32]
  Activity: Dose-dependent effect
[33]
  fold change (FC): 4 - 128
[34]
  fold change (FC): 4 - 128
[35]
  Activity: Dose-dependent effect
[36]
  fold change (FC): 4 - 128
[37]
  Activity: inactive
[38]
  Activity: Non-Toxic
[39]
  Activity: Dose-dependent effect
[40]
  fold change (FC): 4 - 128
[41]
  fold change (FC): 4 - 128
[42]
  Activity: Dose-dependent effect
[43]
  Activity: Dose-dependent effect
[44]
  Activity: Dose-dependent effect
[45]
  fold change (FC): 4 - 128
[46]
  Activity: Dose-dependent effect
